For seven molecules, IC50 and EC50 results are on record in patent US12331044B2, “Inhibitors of histone deacetylase useful for the treatment or prevention of HIV infection” (Merck Sharp & Dohme LLC, priority 2018, dated 2025).

Assay [1] has as its target human HDAC3/SMRT heterodimer (Homo sapiens (Human), UniProt O15379). The experiment in a line: biochemical.
Another assay concerns the target human HDAC2 (Homo sapiens (Human), UniProt Q92769). Nature of the assay: HDAC2 inhibition assay (modified FLUOR DE LYS, 384-well). The class given is biochemical. The following applies: […] nM enzyme, 40 μM substrate BML-KI104, 3 h pre-incubation; read-out: HDAC2 IC50.
The target in the next assay is human HDAC8 (Homo sapiens (Human), UniProt Q9BY41). Nature of the assay: HDAC8 inhibition assay (modified FLUOR DE LYS, 384-well). Type of assay: biochemical. The following applies: […] nM enzyme, 200 μM substrate BML-KI178, 3 h pre-incubation; read-out: HDAC8 IC50.
The next assay addresses HDAC6 (Homo sapiens (Human), UniProt Q9UBN7). Nature of the assay: biochemical.
For the next assay, the system named is KARN cells (Jurkat 2C4). Nature of the assay: cells. The following applies: Homo sapiens.
The next assay concerns the target human HDAC1 (Homo sapiens (Human), UniProt Q13547). Nature of the assay: biochemical.
Where [2] appears, read: read-out: Karn EC50 nM 0.1% NHS, 0.1% normal human serum, luciferase induction, 2 μM SAHA = 100%.
[3] abbreviates: read-out: Karn EC50 nM 5% NHS, 5% normal human serum, luciferase induction, 2 μM SAHA = 100%.

Molecules are shown by their SMILES. Like-named read-outs stand apart in the source and are kept apart here.

Chain of human HDAC3/SMRT heterodimer (O15379 whole entry): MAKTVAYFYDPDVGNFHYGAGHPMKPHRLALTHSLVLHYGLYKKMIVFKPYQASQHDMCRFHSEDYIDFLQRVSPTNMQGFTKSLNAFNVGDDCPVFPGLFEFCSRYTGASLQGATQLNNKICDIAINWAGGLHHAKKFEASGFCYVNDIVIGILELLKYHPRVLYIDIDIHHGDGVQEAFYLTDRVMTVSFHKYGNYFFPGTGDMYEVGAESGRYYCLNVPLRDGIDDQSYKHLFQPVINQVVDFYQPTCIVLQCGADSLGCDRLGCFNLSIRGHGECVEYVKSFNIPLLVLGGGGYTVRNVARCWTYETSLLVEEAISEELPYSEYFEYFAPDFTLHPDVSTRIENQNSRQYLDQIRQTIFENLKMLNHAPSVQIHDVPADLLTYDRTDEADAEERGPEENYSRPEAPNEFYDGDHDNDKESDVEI
Chain of human HDAC3/SMRT heterodimer (Q9Y618 1-899 partner): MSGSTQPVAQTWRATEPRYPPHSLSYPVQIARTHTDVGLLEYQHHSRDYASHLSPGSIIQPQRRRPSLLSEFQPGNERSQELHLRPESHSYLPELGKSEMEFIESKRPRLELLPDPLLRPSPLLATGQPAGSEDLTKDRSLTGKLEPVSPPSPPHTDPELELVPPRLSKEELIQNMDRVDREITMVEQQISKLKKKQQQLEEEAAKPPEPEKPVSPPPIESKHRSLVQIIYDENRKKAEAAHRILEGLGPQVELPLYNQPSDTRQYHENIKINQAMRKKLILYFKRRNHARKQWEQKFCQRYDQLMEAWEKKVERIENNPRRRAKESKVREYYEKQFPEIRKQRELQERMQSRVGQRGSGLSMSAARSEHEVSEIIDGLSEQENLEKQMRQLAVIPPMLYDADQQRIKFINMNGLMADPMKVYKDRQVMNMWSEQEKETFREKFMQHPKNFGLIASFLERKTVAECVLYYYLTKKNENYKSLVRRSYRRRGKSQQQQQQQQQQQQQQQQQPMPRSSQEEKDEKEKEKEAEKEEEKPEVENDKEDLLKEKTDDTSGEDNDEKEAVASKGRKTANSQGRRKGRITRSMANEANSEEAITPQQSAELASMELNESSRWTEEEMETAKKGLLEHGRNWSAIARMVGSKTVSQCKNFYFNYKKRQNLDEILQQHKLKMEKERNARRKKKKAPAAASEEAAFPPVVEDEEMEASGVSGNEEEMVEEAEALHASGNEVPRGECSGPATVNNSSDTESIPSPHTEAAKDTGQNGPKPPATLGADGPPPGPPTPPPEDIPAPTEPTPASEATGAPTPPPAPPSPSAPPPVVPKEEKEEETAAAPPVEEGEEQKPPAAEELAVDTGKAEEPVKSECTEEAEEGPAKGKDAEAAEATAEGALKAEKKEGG
Chain of human HDAC1 (Q13547 whole entry): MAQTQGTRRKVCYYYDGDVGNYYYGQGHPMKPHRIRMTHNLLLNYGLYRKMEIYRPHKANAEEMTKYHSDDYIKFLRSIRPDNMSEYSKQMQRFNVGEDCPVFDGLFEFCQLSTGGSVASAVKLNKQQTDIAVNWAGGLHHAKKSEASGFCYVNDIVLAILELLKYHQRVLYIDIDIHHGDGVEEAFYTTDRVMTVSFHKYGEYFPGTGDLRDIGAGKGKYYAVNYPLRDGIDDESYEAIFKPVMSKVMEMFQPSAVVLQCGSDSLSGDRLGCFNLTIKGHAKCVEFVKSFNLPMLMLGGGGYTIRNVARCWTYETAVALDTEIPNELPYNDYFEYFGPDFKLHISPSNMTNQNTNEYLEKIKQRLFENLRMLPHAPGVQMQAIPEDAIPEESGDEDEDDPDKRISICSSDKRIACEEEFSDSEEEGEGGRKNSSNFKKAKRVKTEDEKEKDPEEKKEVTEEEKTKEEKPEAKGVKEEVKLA
Chain of human HDAC8 (Q9BY41 whole entry): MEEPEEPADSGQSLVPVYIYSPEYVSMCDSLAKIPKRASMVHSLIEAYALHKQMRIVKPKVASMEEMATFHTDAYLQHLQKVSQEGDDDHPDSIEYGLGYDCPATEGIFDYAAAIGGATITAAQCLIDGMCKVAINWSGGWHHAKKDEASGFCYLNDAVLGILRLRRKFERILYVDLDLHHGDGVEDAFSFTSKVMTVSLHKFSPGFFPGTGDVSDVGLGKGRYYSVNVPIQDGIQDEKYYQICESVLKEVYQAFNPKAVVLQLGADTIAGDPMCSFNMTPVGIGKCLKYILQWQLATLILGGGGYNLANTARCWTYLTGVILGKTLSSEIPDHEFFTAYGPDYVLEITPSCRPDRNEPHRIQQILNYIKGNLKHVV
Chain of HDAC6 (Q9UBN7 whole entry): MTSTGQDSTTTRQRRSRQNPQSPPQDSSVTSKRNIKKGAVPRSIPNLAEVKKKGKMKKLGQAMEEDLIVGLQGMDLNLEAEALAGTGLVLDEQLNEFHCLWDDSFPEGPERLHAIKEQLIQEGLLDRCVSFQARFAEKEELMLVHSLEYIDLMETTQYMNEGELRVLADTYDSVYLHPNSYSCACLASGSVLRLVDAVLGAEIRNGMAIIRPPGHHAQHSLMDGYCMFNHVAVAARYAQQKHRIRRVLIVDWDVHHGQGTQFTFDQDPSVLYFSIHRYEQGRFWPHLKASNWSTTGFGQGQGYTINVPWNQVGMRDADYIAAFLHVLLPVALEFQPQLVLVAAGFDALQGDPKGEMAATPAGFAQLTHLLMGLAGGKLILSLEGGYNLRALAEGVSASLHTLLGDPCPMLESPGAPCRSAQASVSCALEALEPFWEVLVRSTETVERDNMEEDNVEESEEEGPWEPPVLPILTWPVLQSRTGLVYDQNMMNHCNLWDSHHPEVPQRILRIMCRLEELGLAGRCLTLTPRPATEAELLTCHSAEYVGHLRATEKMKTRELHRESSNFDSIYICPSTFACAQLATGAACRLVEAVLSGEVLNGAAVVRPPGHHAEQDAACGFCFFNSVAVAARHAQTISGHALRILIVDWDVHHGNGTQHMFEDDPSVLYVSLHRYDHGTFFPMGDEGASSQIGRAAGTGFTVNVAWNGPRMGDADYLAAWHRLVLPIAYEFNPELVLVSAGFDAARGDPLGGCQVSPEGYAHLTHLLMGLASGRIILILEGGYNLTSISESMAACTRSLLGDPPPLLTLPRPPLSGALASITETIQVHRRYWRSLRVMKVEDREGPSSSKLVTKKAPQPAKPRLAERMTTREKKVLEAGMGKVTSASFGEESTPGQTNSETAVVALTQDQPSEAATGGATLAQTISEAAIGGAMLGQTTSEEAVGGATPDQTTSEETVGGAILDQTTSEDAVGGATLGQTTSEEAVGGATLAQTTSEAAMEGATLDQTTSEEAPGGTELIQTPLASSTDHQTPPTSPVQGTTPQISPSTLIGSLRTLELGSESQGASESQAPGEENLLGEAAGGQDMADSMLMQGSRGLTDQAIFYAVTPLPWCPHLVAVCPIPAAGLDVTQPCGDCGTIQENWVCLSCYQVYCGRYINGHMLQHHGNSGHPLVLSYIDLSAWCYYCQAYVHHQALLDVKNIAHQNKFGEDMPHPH
Chain of human HDAC2 (Q92769 whole entry): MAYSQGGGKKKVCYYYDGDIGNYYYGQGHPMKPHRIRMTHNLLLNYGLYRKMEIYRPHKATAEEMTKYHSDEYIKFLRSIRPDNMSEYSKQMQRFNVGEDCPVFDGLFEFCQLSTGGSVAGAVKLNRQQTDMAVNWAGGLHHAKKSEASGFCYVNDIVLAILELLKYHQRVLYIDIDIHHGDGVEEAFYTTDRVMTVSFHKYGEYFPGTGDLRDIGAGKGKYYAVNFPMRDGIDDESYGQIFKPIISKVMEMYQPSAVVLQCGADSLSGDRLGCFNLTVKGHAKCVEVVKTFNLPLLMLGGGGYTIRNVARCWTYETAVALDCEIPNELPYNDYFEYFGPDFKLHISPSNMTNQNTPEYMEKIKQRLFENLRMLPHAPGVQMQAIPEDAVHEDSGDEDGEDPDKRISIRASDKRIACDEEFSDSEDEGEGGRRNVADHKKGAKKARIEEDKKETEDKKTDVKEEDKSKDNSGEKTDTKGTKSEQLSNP
Procedure for KARN cells (Jurkat 2C4): KARN Assay Cell Maintenance
KARN cells (Jurkat 2C4) were licensed from the laboratory of Dr. John Karn, Case Western Reserve University, School of Medicine. […] An atmosphere of 5% CO2 and 90% humidity was used for all culture work.
These flasks were returned to the incubator.
The cells were gently resuspended in assay media (30 ml) and pelleted again. […] The cells were counted using the ViCell (Beckman Coulter) and diluted as necessary. […] The plates were covered and returned to the incubator prior to compound addition.
The reference compounds, DMSO and SAHA were then added to the compound plate. […] The final high concentration for SAHA and the test compounds in the assays was 40 μM. The final DMSO concentration in all wells was 0.4%. The minimal induction reference compound used was DMSO and the maximal induction reference compound used was SAHA (2 μM final concentration in the assay).
Day 3: The luciferase detection reagent was prepared by transferring the contents of one bottle of Steady-Glo buffer to one bottle of Steady-Glo aubstrate (Steady-Glo Luciferase Assay System, Promega, catalog number E2520), followed by gently mixing until the substrate was thoroughly dissolved and the solution was equilibrated to room temperature. […] The Steady-Glo Reagent was added to the plates (30 μl/well), which were then covered with a black lid and incubated for 10 minutes at room temperature. The plates were then read for luminescence on an Envision (Perkin Elmer) using the ultrasensitive mode (US LUM), 0.1 counts per second and 384-well aperture. Luminescence counts in the DMSO reference wells were considered as 0% induction, while those in the 2 μM SAHA reference wells were considered as 100% induction. Dose response curves were plotted as test compound concentration (X-axis) vs. percent activation (Y-axis) using a 4-parameter fit based on the Levenberg-Marquardt algorithm.

`COc1cc2nc(C)ccc2cc1-c1cnc([C@H](CCCCCC(=O)c2ccon2)NC(=O)[C@H]2CC23CCN(C)CC3)[nH]1` [Example 110, (S)-N-((S)-7-(isoxazol-3-yl)-1-(5-(7-methoxy-2-methylquinolin-6-yl)-1H-imidazol-2-yl)-7-oxoheptyl)-6-methyl-6-azaspiro[2.5]octane-1-carboxamide]: the IC50 in assay [1] is 0.18 nM; on human HDAC2 it was 0.87 nM; at human HDAC8, 2.7 nM; at HDAC6, 2500 nM; against human HDAC1, 0.18 nM. The EC50 with KARN cells (Jurkat 2C4) (setting [2]) and with KARN cells (Jurkat 2C4) (setting [3]) was 11 nM throughout.
`COc1ncccc1-c1cnc(C(CCCCCC(=O)c2ncco2)NC(=O)[C@H]2CC23CCN(C)CC3)o1` (stereo partly drawn) [Example 114, (1S)-N-(1-(5-(2-methoxypyridin-3-yl)oxazol-2-yl)-7-(oxazol-2-yl)-7-oxoheptyl)-6-methyl-6-azaspiro[2.5]octane-1-carboxamide]: the IC50 in assay [1] is 13 nM; on human HDAC2, 120 nM; at human HDAC8, over 900 nM; against HDAC6, over 900 nM; against human HDAC1 it was 26 nM. Moreover, the figures for the EC50 with KARN cells (Jurkat 2C4) (setting [2]) and with KARN cells (Jurkat 2C4) (setting [3]) were 3400 nM and 4200 nM, respectively.
As to `Cc1ccc2cc(-c3cnc([C@H](CCCCCC(=O)c4ncco4)NC(=O)C4=NOC5(CCN(C)CC5)C4)o3)ccc2n1` [Example 116, (S)-8-methyl-N-(1-(5-(2-methylquinolin-6-yl)oxazol-2-yl)-7-(oxazol-2-yl)-7-oxoheptyl)-1-oxa-2,8-diazaspiro[4.5]dec-2-ene-3-carboxamide], the concentration for half-maximal inhibition (IC50) in assay [1] was 1.5 nM; at human HDAC2, 9.7 nM; at human HDAC8 it was 250 nM; at HDAC6, 4100 nM; against human HDAC1, 4.8 nM. For the same molecule, the values for the EC50 in the assay on KARN cells (Jurkat 2C4) (setting [2]) and in the assay on KARN cells (Jurkat 2C4) (setting [3]) were 95 nM and 120 nM, respectively.
Take `COc1cc2nc(C)ccc2cc1-c1cnc([C@H](CCCCCC(=O)c2ncco2)NC(=O)C2CCC3(CC2)CN(C)C3)[nH]1` [Example 117, (S)-N-(1-(5-(7-methoxy-2-methylquinolin-6-yl)-1H-imidazol-2-yl)-7-(oxazol-2-yl)-7-oxoheptyl)-2-methyl-2-azaspiro[3.5]nonane-7-carboxamide]: the IC50 in assay [1] turned out to be 1.4 nM; at human HDAC2 it was 5.8 nM; at human HDAC8, 21 nM; against HDAC6 it was 680 nM; against human HDAC1, 0.82 nM. The EC50 in the assay on KARN cells (Jurkat 2C4) (setting [2]) and with KARN cells (Jurkat 2C4) (setting [3]) was 320 nM throughout.
Regarding `COc1cc(-c2cnc([C@@H](N)CCCCCC(=O)c3ncco3)[nH]2)c(F)cn1` [Example 129, (S)-7-amino-7-(5-(5-fluoro-2-methoxypyridin-4-yl)-1H-imidazol-2-yl)-1-(oxazol-2-yl)heptan-1-one], the IC50 was 16 nM in assay [1]; 100 nM at human HDAC2; 2300 nM at human HDAC8; at least 45000 nM against HDAC6; 16 nM against human HDAC1. Further, the EC50 amounted to 1600 nM with KARN cells (Jurkat 2C4) (setting [2]) and 2900 nM in the assay on KARN cells (Jurkat 2C4) (setting [3]).
As to `CCN1CCC2(CC1)C[C@@H]2C(=O)N[C@@H](CCCCCC(=O)c1ccon1)c1cc(-c2cc3ccc(C)nc3cc2OC)on1` [Example 145, (S)-6-ethyl-N-((S)-7-(isoxazol-3-yl)-1-(5-(7-methoxy-2-methylquinolin-6-yl)isoxazol-3-yl)-7-oxoheptyl)-6-azaspiro[2.5]octane-1-carboxamide], the concentration for half-maximal inhibition (IC50) in assay [1] was 4.2 nM; at human HDAC2 it was 14 nM; on human HDAC8, 5.1 nM; against HDAC6 it was over 900 nM; against human HDAC1, 3.4 nM. Further, the EC50 in the assay on KARN cells (Jurkat 2C4) (setting [2]) came out at 49 nM; in the assay on KARN cells (Jurkat 2C4) (setting [3]) it was 66 nM.
`N#Cc1nc(-c2ccc(F)cc2)[nH]c1[C@@H](N)CCCCCC(=O)c1ncco1` [Example 185, (S)-5-(1-amino-7-(oxazol-2-yl)-7-oxoheptyl)-2-(4-fluorophenyl)-1H-imidazole-4-carbonitrile]: the half-inhibitory concentration (IC50) was 3.9 nM in assay [1]; 15 nM on human HDAC2; 6700 nM at human HDAC8; at least 45000 nM on HDAC6; 2.9 nM at human HDAC1. Further, the EC50 with KARN cells (Jurkat 2C4) (setting [2]) was 250 nM; in the assay on KARN cells (Jurkat 2C4) (setting [3]), 690 nM.

The IC50 is the midpoint of a concentration-inhibition curve. As a reminder, the EC50 is the concentration that produces a half-maximal response.
